Laboratory results: ChEMBL document CHEMBL5365394, “Design, synthesis and biological evaluation of novel spiro-quinazolinone derivatives as chitin synthase inhibitors and antifungal agents” (Eur J Med Chem, 2023)
Values after ≈ are worked out from the molar mass of the structure shown. *1 amine or outer side, *2 acyl side, *3 side chain or, on linkers, in order; H or OH if unused. Where a SMILES comes first, the peptide text is derived from it. Bridges are numbered along the chain shown (N, C = ends). [ ]: non-standard residue; d: D form. The star is where a group is joined. hTyr(3S-OH,4S-OH,3'-OSO3H) = N[C@H](C(=O)O)[C@H](O)[C@@H](O)c1ccc(O)c(OS(=O)(=O)O)c1; Orn(4R-OH,5R-OH) = O=C([C@H](C[C@@H](O)[C@@H](O)N[*:3])N[*:1])[*:2]; Pro(3S-OH,4S-Me) = C[C@H]1CN[C@H](C(=O)O)[C@H]1O; X1 = CCCCCOc1ccc(-c2cc(-c3ccc(C(=O)*)cc3)no2)cc1; Gln(3R-OH) = NC(=O)C[C@@H](O)[C@H](N)C(=O)O; Hyp = O=C(O)[C@@H]1C[C@@H](O)CN1

How the values were obtained:
[1] = system: Candida albicans; experiment: Antifungal activity against Micafungin-resistant Candida albicans ATCC 76615R assessed as fungal growth inhibition; type: functional
[2] = system: Candida tropicalis; experiment: Inhibition of Candida tropicalis ATCC 750 chitin synthase using […] as substrate at 300 ug/ml incubated for 1 hr by absorbance based assay relative to control; settings: dose 300.0 µg/ml
[3] = system: Candida albicans; experiment: Antifungal activity against Candida albicans ATCC 76615 assessed as fungal growth inhibition incubated for 24 hrs by two-fold serial dilution method; type: functional
[4] = system: Aspergillus flavus; experiment: Antifungal activity against Aspergillus flavus ATCC 16870 assessed as fungal growth inhibition incubated for 24 hrs by two-fold serial dilution method; type: functional
[5] = system: Aspergillus fumigatus; experiment: Antifungal activity against Aspergillus fumigatus GIMCC 3.19 assessed as fungal growth inhibition incubated for 24 hrs by two-fold serial dilution method; type: functional
[6] = system: Cryptococcus neoformans; experiment: Antifungal activity against Cryptococcus neoformans ATCC 32719 assessed as fungal growth inhibition incubated for 24 hrs by two-fold serial dilution method; type: functional
[7] = Inhibition of Candida tropicalis ATCC 750 chitin synthase using UDP-GlcNAc as substrate incubated for 1 hr by absorbance based assay
[8] = system: Candida albicans; experiment: Antifungal activity against Fluconazole-resistant Candida albicans ATCC 76615R assessed as fungal growth inhibition; type: functional
[9] = system: Aspergillus flavus; experiment: Antifungal activity against Fluconazole-resistant Aspergillus flavus ATCC 16870R assessed as fungal growth inhibition; type: functional
[10] = system: Aspergillus fumigatus; experiment: Antifungal activity against Fluconazole-resistant Aspergillus fumigatus GIMCC 3.19R assessed as fungal growth inhibition; type: functional
[11] = system: Cryptococcus neoformans; experiment: Antifungal activity against Fluconazole-resistant Cryptococcus neoformans ATCC 32719R assessed as fungal growth inhibition; type: functional
[12] = Cytotoxicity against human A549 cells assessed as cell viability at 4 ug/ml incubated for 24 hrs by CCK-8 assay relative to control; type: toxicity, cell-based; settings: at 4 µg/mL, read-out: Activity
[13] = Cytotoxicity against human A549 cells assessed as cell viability at 8 ug/ml incubated for 24 hrs by CCK-8 assay relative to control; type: toxicity, cell-based; settings: at 8 µg/mL, read-out: Activity
[14] = Cytotoxicity against human A549 cells assessed as cell viability at 16 ug/ml incubated for 24 hrs by CCK-8 assay relative to control; type: toxicity, cell-based; settings: at 16 µg/mL, read-out: Activity
[15] = Cytotoxicity against human A549 cells assessed as cell viability at 32 ug/ml incubated for 24 hrs by CCK-8 assay relative to control; type: toxicity, cell-based; settings: at 32 µg/mL, read-out: Activity
[16] = Cytotoxicity against human A549 cells assessed as cell viability at 64 ug/ml incubated for 24 hrs by CCK-8 assay relative to control; type: toxicity, cell-based; settings: at 64 µg/mL, read-out: Activity
[17] = system: Aspergillus flavus; experiment: Antifungal activity against Aspergillus flavus ATCC 16870 assessed as inhibition of cell wall synthesis incubated for 24 hrs in presence of sorbitol; type: functional
[18] = system: Candida albicans; experiment: Antifungal activity against Candida albicans ATCC 76615 assessed as inhibition of cell wall synthesis incubated for 24 hrs in presence of sorbitol; type: functional
[19] = system: Aspergillus fumigatus; experiment: Antifungal activity against Aspergillus fumigatus GIMCC 3.19 assessed as inhibition of cell wall synthesis incubated for 24 hrs in presence of sorbitol; type: functional
[20] = system: Cryptococcus neoformans; experiment: Antifungal activity against Cryptococcus neoformans ATCC 32719 assessed as inhibition of cell wall synthesis incubated for 24 hrs in presence of sorbitol; type: functional
[21] = system: Candida albicans; experiment: Antifungal activity against Candida albicans ATCC 76615 assessed as inhibition of cell wall synthesis incubated for 24 hrs in absence of sorbitol; type: functional
[22] = system: Aspergillus flavus; experiment: Antifungal activity against Aspergillus flavus ATCC 16870 assessed as inhibition of cell wall synthesis incubated for 24 hrs in absence of sorbitol; type: functional
[23] = system: Aspergillus fumigatus; experiment: Antifungal activity against Aspergillus fumigatus GIMCC 3.19 assessed as inhibition of cell wall synthesis incubated for 24 hrs in absence of sorbitol; type: functional
[24] = system: Cryptococcus neoformans; experiment: Antifungal activity against Cryptococcus neoformans ATCC 32719 assessed as inhibition of cell wall synthesis incubated for 24 hrs in absence of sorbitol; type: functional
[25] = system: A549; experiment: Cytotoxicity against human A549 cells assessed as cell viability incubated for 24 hrs at 128 ug/ml by CCK-8 assay relative to control; settings: dose 128 µg/ml

Compound | inhibition [2] [%] | MIC [3] [µg/mL] | MIC [4] [µg/mL] | MIC [5] [µg/mL] | MIC [6] [µg/mL] | IC50 [7] [µM] | also measured
CCCCCOc1ccc(-c2cc(-c3ccc(C(=O)N[C@H]4C[C@@H](O)[C@@H](O)NC(=O)[C@@H]5[C@@H](O)[C@@H](C)CN5C(=O)[C@H]([C@H](O)CC(N)=O)NC(=O)[C@H]([C@H](O)[C@@H](O)c5ccc(O)c(OS(=O)(=O)O)c5)NC(=O)[C@@H]5C[C@@H](O)CN5C(=O)[C@H]([C@@H](C)O)NC4=O)cc3)no2)cc1 [MICAFUNGIN] (X1-[Orn(4R-OH,5R-OH)]T[Hyp][hTyr(3S-OH,4S-OH,3'-OSO3H)][Gln(3R-OH)][Pro(3S-OH,4S-Me)]; lactam 1-C) | – | – | – | – | – | – | MIC [1]: 256 µg/mL (≈ 202 µM)
O=C(/C=C/C(=O)Nc1ccc2c(c1)C(=O)NC1(CCCC1)N2)Nc1ccc(Cl)cc1 | 43.1 | 256 (≈ 603 µM) | 128 (≈ 301 µM) | 128 (≈ 301 µM) | 128 (≈ 301 µM) | – | –
O=C(/C=C/C(=O)Nc1ccccc1Cl)Nc1ccc2c(c1)C(=O)NC1(CCOC1)N2 (stereo not given) | 53.7 | 128 (≈ 300 µM) | 128 (≈ 300 µM) | 64 (≈ 150 µM) | 128 (≈ 300 µM) | – | –
O=C(/C=C/C(=O)Nc1ccccc1Cl)Nc1ccc2c(c1)C(=O)NC1(CCSC1)N2 (stereo not given) | 58.4 | 32 (≈ 72.2 µM) | 64 (≈ 144 µM) | 64 (≈ 144 µM) | 64 (≈ 144 µM) | 420 | –
OC(Cn1cncn1)(Cn1cncn1)c1ccc(F)cc1F [FLUCONAZOLE] | – | 2 (≈ 6.53 µM) | 4 (≈ 13.1 µM) | 8 (≈ 26.1 µM) | 4 (≈ 13.1 µM) | – | MIC [8]: 256 µg/mL (≈ 836 µM); MIC [9]: 256 µg/mL (≈ 836 µM); MIC [10]: 256 µg/mL (≈ 836 µM); MIC [11]: 256 µg/mL (≈ 836 µM)
O=C(/C=C/C(=O)Nc1ccc2c(c1)C(=O)NC1(CCCC1)N2)Nc1ccc(F)c(Cl)c1 | 48.2 | 128 (≈ 289 µM) | 128 (≈ 289 µM) | 128 (≈ 289 µM) | 128 (≈ 289 µM) | – | –
O=C(/C=C/C(=O)Nc1ccc2c(c1)C(=O)NC1(CCOC1)N2)Nc1ccc(Cl)cc1 (stereo not given) | 49.2 | 128 (≈ 300 µM) | 128 (≈ 300 µM) | 128 (≈ 300 µM) | 128 (≈ 300 µM) | – | –
O=C(/C=C/C(=O)Nc1ccc2c(c1)C(=O)NC1(CCSC1)N2)Nc1cccc(Cl)c1 (stereo not given) | 60.9 | 32 (≈ 72.2 µM) | 64 (≈ 144 µM) | 32 (≈ 72.2 µM) | 64 (≈ 144 µM) | 282 | –
O=C(/C=C/C(=O)Nc1ccc2c(c1)C(=O)NC1(CCSC1)N2)Nc1ccc(Cl)cc1 (stereo not given) | 58 | 64 (≈ 144 µM) | 128 (≈ 289 µM) | 64 (≈ 144 µM) | 64 (≈ 144 µM) | 433 | –
O=C(/C=C/C(=O)Nc1ccc2c(c1)C(=O)NC1(CCSC1)N2)Nc1ccc(F)c(Cl)c1 (stereo not given) | 64.4 | 16 (≈ 34.7 µM) | 32 (≈ 69.4 µM) | 64 (≈ 139 µM) | 32 (≈ 69.4 µM) | 267 | –
Cc1ccc(NC(=O)/C=C/C(=O)Nc2ccc3c(c2)C(=O)NC2(CCSC2)N3)cc1 (stereo not given) | 48.2 | 64 (≈ 151 µM) | 128 (≈ 303 µM) | 128 (≈ 303 µM) | 128 (≈ 303 µM) | 883 | –
O=C(/C=C/C(=O)Nc1ccc2c(c1)C(=O)NC1(CCSC1)N2)Nc1ccccc1 (stereo not given) | 44.2 | 128 (≈ 313 µM) | 256 (≈ 627 µM) | 128 (≈ 313 µM) | 128 (≈ 313 µM) | 1870 | –
Cc1cccc(NC(=O)/C=C/C(=O)Nc2ccc3c(c2)C(=O)NC2(CCSC2)N3)c1 (stereo not given) | 47.2 | 64 (≈ 151 µM) | 128 (≈ 303 µM) | 128 (≈ 303 µM) | 64 (≈ 151 µM) | 800 | –
NC(=O)OC[C@H](O)[C@@H](O)[C@H](N)C(=O)N[C@H](C(=O)O)[C@H]1O[C@@H](n2cc(CO)c(=O)[nH]c2=O)[C@H](O)[C@@H]1O [POLYOXIN B] | 84.7 | 8 (≈ 15.8 µM) | 16 (≈ 31.5 µM) | 16 (≈ 31.5 µM) | 16 (≈ 31.5 µM) | 93.5 | viability at 24 h, 4 ug/ml [12]: 99.3%; viability at 24 h, 8 ug/ml [13]: 98.7%; viability at 24 h, 16 ug/ml [14]: 97.9%; viability at 24 h, 32 ug/ml [15]: 92.7%; viability at 24 h, 64 ug/ml [16]: 91.2%; MIC [17]: 128 µg/mL; MIC [18]: 128 µg/mL; MIC [19]: 128 µg/mL; MIC [20]: 64 µg/mL; MIC [21]: 8 µg/mL (≈ 15.8 µM); MIC [22]: 16 µg/mL (≈ 31.5 µM); MIC [23]: 16 µg/mL (≈ 31.5 µM); MIC [24]: 16 µg/mL (≈ 31.5 µM); viability [25]: 84.3%
O=C(/C=C/C(=O)Nc1ccc2c(c1)C(=O)NC1(CCSC1)N2)Nc1cccc(C(F)(F)F)c1 (stereo not given) | 58.1 | 128 (≈ 269 µM) | 64 (≈ 134 µM) | 64 (≈ 134 µM) | 64 (≈ 134 µM) | 353 | –
O=C(/C=C/C(=O)Nc1ccc2c(c1)C(=O)NC1(CCOC1)N2)Nc1ccc(F)c(Cl)c1 (stereo not given) | 56.8 | 128 (≈ 288 µM) | 64 (≈ 144 µM) | 64 (≈ 144 µM) | 128 (≈ 288 µM) | – | –
O=C(/C=C/C(=O)Nc1ccc2c(c1)C(=O)NC1(CCOC1)N2)Nc1ccc(Br)cc1 (stereo not given) | 63.1 | 32 (≈ 67.9 µM) | 64 (≈ 136 µM) | 64 (≈ 136 µM) | 32 (≈ 67.9 µM) | – | –
O=C(/C=C/C(=O)Nc1ccccc1Cl)Nc1ccc2c(c1)C(=O)NC1(CCCC1)N2 | 38.7 | 128 (≈ 301 µM) | 256 (≈ 603 µM) | 256 (≈ 603 µM) | 128 (≈ 301 µM) | – | –
O=C(/C=C/C(=O)Nc1ccc2c(c1)C(=O)NC1(CCSC1)N2)Nc1cccc(Br)c1 (stereo not given) | 67.5 | 32 (≈ 65.7 µM) | 32 (≈ 65.7 µM) | 64 (≈ 131 µM) | 32 (≈ 65.7 µM) | 153 | –
O=C(/C=C/C(=O)Nc1ccccc1F)Nc1ccc2c(c1)C(=O)NC1(CCSC1)N2 (stereo not given) | 52.2 | 64 (≈ 150 µM) | 128 (≈ 300 µM) | 128 (≈ 300 µM) | 128 (≈ 300 µM) | 653 | –
O=C(/C=C/C(=O)Nc1ccc2c(c1)C(=O)NC1(CCCC1)N2)Nc1ccc(Br)cc1 | 56.4 | 128 (≈ 273 µM) | 128 (≈ 273 µM) | 128 (≈ 273 µM) | 64 (≈ 136 µM) | – | –
O=C(/C=C/C(=O)Nc1ccc2c(c1)C(=O)NC1(CCSC1)N2)Nc1ccc(F)cc1 (stereo not given) | 54.6 | 64 (≈ 150 µM) | 128 (≈ 300 µM) | 128 (≈ 300 µM) | 64 (≈ 150 µM) | 593 | –
